molecular target: T1, Recombinant human EP300 containing the bromodomain (EP300-BD (1040-1161)) (Homo sapiens, UniProt Q09472); experiment: EP300 Alphascreen binding assay
T1 construct: Recombinant human EP300 bromodomain (EP300-BD (1040-1161)); made in house; host or cells: E. coli BL21-CodonPlus (DE3), modified pET vector
T1 sequence (Q09472 1040-1161): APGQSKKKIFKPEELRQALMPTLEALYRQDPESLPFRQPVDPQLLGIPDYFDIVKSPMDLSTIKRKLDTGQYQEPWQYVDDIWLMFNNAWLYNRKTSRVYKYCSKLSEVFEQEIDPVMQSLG
Experimental: EP300 Alphascreen Binding Assay
Binding of compounds of Formula (I) with EP300 was assessed using Alphascreen™ binding assay. The inhibition of the interaction between the EP300 bromodomain and its acetylated target protein was measured quantitatively using recombinant EP300 protein, an acetylated Histone 3 peptide and AlphaScreen™ technology. In absence of inhibition of the EP300 protein bound to AlphaScreen™ nickel chelate acceptor beads can interact with the acetylated Histone 3 peptide which is immobilized by the AlphaScreen™ Streptavidin coated beads. This interaction brings donor and acceptor beads in proximity. The close proximity allows the singlet oxygen produced by laser excitation of the donor beads to reach the acceptor beads and generate a luminescence signal. EP300 inhibitors result in a decrease in the proximity signal through an inhibition of the EP300—acetylated peptide interaction.
Recombinant human EP300 containing the bromodomain (EP300-BD (1040-1161)) was prepared and purified as described in protein expression and purification session. The peptide is human Histone H345-64K56Ac-Biotin (Anaspec CA, USA).
Protocol for EP300 assay: All components were prepared in buffer composed of 50 mM HEPES pH 7.5, 50 mM NaCl, 0.01% BSA, 0.01% Triton X-100, 2 mM DTT. Test compounds and DMSO vehicle were diluted 1:50 in buffer and a 4 μL volume is transferred to an Alphaplate. 5.5 μL of EP300 protein and 5.5 μL of peptide were added to wells containing 4 μL of various concentrations of test compounds of Formula (I) or DMSO vehicle in an Alphaplate (PerkinElmer GA, USA) and incubated for 1 hour at room temperature. 5 μL donor and acceptor bead mixture was then added with final concentrations of 7.5 μg/ml. 60 minutes after bead addition, Alpha signal is read on the Envision spectrometer (λEx 680 nm, λEm 520-620 nm). Final concentrations of bromodomain proteins and peptide are as shown below.
All data were normalized to the mean of 16 high and 16 low control wells on each plate. A four parameter curve fit of the following formula was then applied: Y=A+((B−A)/(1+((C/x)^D))) Where ‘A’ is the minimum, ‘B’ is the maximum, ‘C’ is the IC50 and ‘D’ is the Hill slope. Protein Expression and Purification
Recombinant human EP300 bromodomain (EP300-BD (1040-1161)) was expressed in E. coli cells (in a modified pET vector) with an N-terminal six-His tag and purified using a combination of both IMAC (Ni-affinity) and size exclusion chromatography steps.
Recombinant EP300 protein was expressed using the E. coli strain BL21-CodonPlus (DE3) (Agilent Technologies CA, USA). Cells were grown in Terrific Broth (TB) media to an OD600 of 0.7 at 37° C. at which temperature was reduced to 18° C., protein was induced with 1.0 mM isopropyl-β-D-thiogalactopyranoside (“IPTG”) for 20 hours and harvested by centrifugation at 8500×g for 20 minutes. Cells were re-suspended in 0.1M K2PO4 pH 8.0, 250 mM NaCl, 10% Glycerol, 0.75% NP-40, 25 mM Imidazole, with 0.2 mg/ml Lysozyme, 0.2 mM phenylmethanesulfonyl fluoride (“PMSF”), 25 μg/ml DNase I, incubated on ice for 30 minutes and lysed with a cell disruptor (MicroFluidics MA, USA). The lysate was clarified by centrifugation at 20,000×g for 1 hour. The protein was captured with Ni-NTA resin (Life Technologies, USA). Contaminating proteins were washed off with 50 mM HEPES pH 7.5, 500 mM NaCl, and 5% Glycerol. Following 3× wash steps, protein was eluted step wise using 10, 25, 50, 100, 150, and 250 mM Imidazole in 50 mM HEPES pH 7.5, 500 mM NaCl, and 5% glycerol. The protein was further purified using a size exclusion column (26/600 Superdex 200, GE Biosciences NJ, USA) in 10 mM HEPES pH 7.5, […].

First: Cc1ccc(S(=O)(=O)n2cc(-c3ccc(C(=O)O)cc3)c3cc(-c4c(C)noc4C)cnc32)cc1 [P-0006, 4-(5-(3,5-dimethylisoxazol-4-yl)-1-tosyl-1H-pyrrolo[2,3-b]pyridin-3-yl)benzoic acid]
Second: Cc1noc(C)c1-c1cnc2c(c1)c(-c1ccc(C(=O)O)cc1)cn2C(c1ccccn1)C1CC1 (stereo not drawn) [P-0007, 4-(1-(cyclopropyl(pyridin-2-yl)methyl)-5-(3,5-dimethylisoxazol-4-yl)-1H-pyrrolo[2,3-b]pyridin-3-yl)benzoic acid]
The IC50 of the first is higher: 1000 to 8000 nM for the first, 0.1 to 1000 nM for the second. The second is the more potent here.

`Cc1noc(C)c1-c1cnc2c(c1)c(-c1ccc(C(=O)O)cc1)cn2C(c1ccccn1)C1CCC1` (stereo not drawn) [P-0008, 4-(1-(cyclobutyl(pyridin-2-yl)methyl)-5-(3,5-dimethylisoxazol-4-yl)-1H-pyrrolo[2,3-b]pyridin-3-yl)benzoic acid] and `Cc1noc(C)c1-c1cnc2c(c1)c(-c1ccc(C(=O)O)cc1)cn2C(c1ccccn1)c1ccccn1` [P-0012, 4-(1-(di(pyridin-2-yl)methyl)-5-(3,5-dimethylisoxazol-4-yl)-1H-pyrrolo[2,3-b]pyridin-3-yl)benzoic acid] fall in the same range of IC50: 0.1 to 1000 nM for the first, 0.1 to 1000 nM for the second.

`Cc1noc(C)c1-c1cnc2c(CC3CCC3)cn(-c3ccc(C(=O)O)cn3)c2c1` [P-0009, 6-(3-(cyclobutylmethyl)-6-(3,5-dimethylisoxazol-4-yl)-1H-pyrrolo[3,2-b]pyridin-1-yl)nicotinic acid] and `Cc1noc(C)c1-c1cnc2c(CC3CC3)cn(-c3ccc(C(=O)O)cn3)c2c1` [P-0010, 6-(3-(cyclopropylmethyl)-6-(3,5-dimethylisoxazol-4-yl)-1H-pyrrolo[3,2-b]pyridin-1-yl)nicotinic acid] fall in the same range of IC50: 0.1 to 1000 nM for the first, 0.1 to 1000 nM for the second.

`Cc1noc(C)c1-c1cnc2c(Cc3ccccn3)cn(-c3ccc(C(=O)O)cn3)c2c1` [P-0011, 6-(6-(3,5-dimethylisoxazol-4-yl)-3-(pyridin-2-ylmethyl)-1H-pyrrolo[3,2-b]pyridin-1-yl)nicotinic acid] and `Cc1noc(C)c1-c1cnc2c(Cc3cccc(OC(F)F)c3)cn(-c3ccnc(C(=O)O)c3)c2c1` [P-0100, 4-(3-(3-(difluoromethoxy)benzyl)-6-(3,5-dimethylisoxazol-4-yl)-1H-pyrrolo[3,2-b]pyridin-1-yl)picolinic acid] fall in the same range of IC50: 0.1 to 1000 nM for the first, 0.1 to 1000 nM for the second.

`Cc1noc(C)c1-c1cnc2c(c1)c(-c1ccc(C(=O)O)cc1F)cn2[C@@H](C)c1ccccn1` [P-0097, (S)-4-(5-(3,5-dimethylisoxazol-4-yl)-1-(1-(pyridin-2-yl)ethyl)-1H-pyrrolo[2,3-b]pyridin-3-yl)-3-fluorobenzoic acid] and `Cc1noc(C)c1-c1cnc2c(c1)c(-c1ccc(C(=O)O)cc1OC(C)C)cn2[C@@H](C)c1ccccn1` [P-0112, (S)-4-(5-(3,5-dimethylisoxazol-4-yl)-1-(1-(pyridin-2-yl)ethyl)-1H-pyrrolo[2,3-b]pyridin-3-yl)-3-isopropoxybenzoic acid] fall in the same range of IC50: 0.1 to 1000 nM for the first, 0.1 to 1000 nM for the second.

`COc1ccc(C(=O)O)cc1-n1cc(CC2CCC2)c2ncc(-c3c(C)noc3C)cc21` [P-0098, 3-(3-(cyclobutylmethyl)-6-(3,5-dimethylisoxazol-4-yl)-1H-pyrrolo[3,2-b]pyridin-1-yl)-4-methoxybenzoic acid] and `Cc1noc(C)c1-c1cnc2c(CC3CCC3)cn(-c3ccc(C#N)c(C(=O)O)c3)c2c1` [P-0104, 2-cyano-5-(3-(cyclobutylmethyl)-6-(3,5-dimethylisoxazol-4-yl)-1H-pyrrolo[3,2-b]pyridin-1-yl)benzoic acid] fall in the same range of IC50: 0.1 to 1000 nM for the first, 0.1 to 1000 nM for the second.

`Cc1noc(C)c1-c1cnc2c(C(=O)c3cccc(OC(F)F)c3)cn(-c3ccnc(C(=O)O)c3)c2c1` [P-0099, 4-(3-(3-(difluoromethoxy)benzoyl)-6-(3,5-dimethylisoxazol-4-yl)-1H-pyrrolo[3,2-b]pyridin-1-yl)picolinic acid] and `Cc1noc(C)c1-c1cnc2c(CC3CCC3)cn(-c3ccc(C(=O)O)c(C#N)c3)c2c1` [P-0105, 2-cyano-4-(3-(cyclobutylmethyl)-6-(3,5-dimethylisoxazol-4-yl)-1H-pyrrolo[3,2-b]pyridin-1-yl)benzoic acid] fall in the same range of IC50: 0.1 to 1000 nM for the first, 0.1 to 1000 nM for the second.

Compared with `Cc1noc(C)c1-c1cnc2c(c1)c(-c1cccc(C(=O)O)c1)cn2CC1CC(F)(F)C1` [P-0101, 3-(1-((3,3-difluorocyclobutyl)methyl)-5-(3,5-dimethylisoxazol-4-yl)-1H-pyrrolo[2,3-b]pyridin-3-yl)benzoic acid], `Cc1noc(C)c1-c1cnc2c(c1)c(-c1cccc(C(=O)O)c1)cn2CC1(C)COC1` [P-0102, 3-(5-(3,5-dimethylisoxazol-4-yl)-1-((3-methyloxetan-3-yl)methyl)-1H-pyrrolo[2,3-b]pyridin-3-yl)benzoic acid] is higher in IC50: 0.1 to 1000 nM for the first, 1000 to 8000 nM for the second.

`COc1cc(C(=O)O)cc(OC)c1-c1cn([C@@H](C)c2ccccn2)c2ncc(-c3c(C)noc3C)cc12` [P-0103, (S)-4-(5-(3,5-dimethylisoxazol-4-yl)-1-(1-(pyridin-2-yl)ethyl)-1H-pyrrolo[2,3-b]pyridin-3-yl)-3,5-dimethoxybenzoic acid] and `CCCOc1cc(C(=O)O)ccc1-c1cn([C@@H](C)c2ccccn2)c2ncc(-c3c(C)noc3C)cc12` [P-0113, (S)-4-(5-(3,5-dimethylisoxazol-4-yl)-1-(1-(pyridin-2-yl)ethyl)-1H-pyrrolo[2,3-b]pyridin-3-yl)-3-propoxybenzoic acid] fall in the same range of IC50: 0.1 to 1000 nM for the first, 0.1 to 1000 nM for the second.

`Cc1noc(C)c1-c1cnc2c(c1)c(-c1cncc(C(=O)O)n1)cn2[C@@H](C)c1ccccn1` [P-0106, (S)-6-(5-(3,5-dimethylisoxazol-4-yl)-1-(1-(pyridin-2-yl)ethyl)-1H-pyrrolo[2,3-b]pyridin-3-yl)pyrazine-2-carboxylic acid] and `Cc1noc(C)c1-c1cnc2c(c1)c(-c1nccc(C(=O)O)n1)cn2[C@@H](C)c1ccccn1` [P-0107, (S)-2-(5-(3,5-dimethylisoxazol-4-yl)-1-(1-(pyridin-2-yl)ethyl)-1H-pyrrolo[2,3-b]pyridin-3-yl)pyrimidine-4-carboxylic acid] fall in the same range of IC50: 1000 to 8000 nM for the first, 1000 to 8000 nM for the second.

`CCOc1cc(C(=O)O)cc(F)c1-n1cc(CC2CCC2)c2ncc(-c3c(C)noc3C)cc21` [P-0108, 4-(3-(cyclobutylmethyl)-6-(3,5-dimethylisoxazol-4-yl)-1H-pyrrolo[3,2-b]pyridin-1-yl)-3-ethoxy-5-fluorobenzoic acid] and `CCOc1cc(C(=O)O)cc(OCC)c1-n1cc(CC2CCC2)c2ncc(-c3c(C)noc3C)cc21` [P-0109, 4-(3-(cyclobutylmethyl)-6-(3,5-dimethylisoxazol-4-yl)-1H-pyrrolo[3,2-b]pyridin-1-yl)-3,5-diethoxybenzoic acid] fall in the same range of IC50: 0.1 to 1000 nM for the first, 0.1 to 1000 nM for the second.

`Cc1noc(C)c1-c1cnc2c(CC3CCC3)cn(-c3ccc(C(=O)O)c4ccoc34)c2c1` [P-0110, 7-(3-(cyclobutylmethyl)-6-(3,5-dimethylisoxazol-4-yl)-1H-pyrrolo[3,2-b]pyridin-1-yl)benzofuran-4-carboxylic acid] and `Cc1noc(C)c1-c1cnc2c(CC3CCC3)cn(-c3c(OC(C)C)cc(C(=O)O)cc3OC(C)C)c2c1` [P-0111, 4-(3-(cyclobutylmethyl)-6-(3,5-dimethylisoxazol-4-yl)-1H-pyrrolo[3,2-b]pyridin-1-yl)-3,5-diisopropoxybenzoic acid] fall in the same range of IC50: 0.1 to 1000 nM for the first, 0.1 to 1000 nM for the second.

Reference: patent publication US11446287B2, “Compounds and methods for EP300 or CBP modulation and indications therefor” (Opna Immuno-Oncology SA, priority 2019, dated 2022)
